Data as given in patent US8563597B2, “Fused tricyclic ether carbamates and their use” (priority 2010, dated 2013).

Key:
[1] = test system: HIV-1LAI; assay: Antiviral activity against HIV-1LAI; type: cell-based; details: Human immunodeficiency virus 1
[2] = biological target: HIV-1 protease (Human immunodeficiency virus type 1 group M subtype B, UniProt P04585); assay: Enzymatic inhibitory activity (Ki) against HIV-1 protease; type: biochemical
[3] = test system: HIV-1ERS104pre (wild-type: X4); assay: Antiviral activity against clinical isolates in PHA-PBMs (p24 Gag production); type: cell-based
Excerpt: (§1) Relative Antiviral activity of 33, and 34 against multi-drug resistant clinical isolates in PHA-PBMs

[4] = test system: HIV-1MDR/B (X4); assay: Antiviral activity against multi-drug resistant clinical isolates in PHA-PBMs (p24 Gag production); type: cell-based
Excerpt: as §1

[5] = test system: HIV-1MDR/G (X4); assay: as above; type: cell-based
Excerpt: as §1

[6] = test system: HIV-1MDR/MM (R5); assay: as above; type: cell-based
Excerpt: as §1

[7] = test system: HIV-1MDR/C (X4); assay: as above; type: cell-based
Excerpt: as §1

[8] = test system: HIV-1MDR/TM (X4); assay: as above; type: cell-based
Excerpt: as §1

[9] = test system: HIV-1MDR/JSL (R5); assay: as above; type: cell-based
Excerpt: as §1

[10] = test system: highly PI-resistant clinical HIV-1 variants; details: in vitro; result in words
Procedure: In another embodiment, novel oxatricyclic [3(R), 3aS, 4aS, 7aR, 8aS] and [3(R), 3aS, 4aR, 7aS, 8aS]-ligands were designed, synthesized, and incorporated into the (R)-hydroxyethyl sulfonamide isostere. […] The antiviral activity of 33 against a panel of highly PI-resistant clinical HIV-1 variants in vitro was measured.

SMILES: COc1ccc(S(=O)(=O)N(CC(C)C)C[C@@H](O)[C@H](Cc2ccccc2)NC(=O)O[C@H]2CO[C@H]3O[C@H]4OCC[C@H]4[C@H]32)cc1 [Inhibitor 31]
- IC50 [1]: < 1000 nM

SMILES: COc1ccc(S(=O)(=O)N(CC(C)C)C[C@@H](O)[C@H](Cc2ccccc2)NC(=O)OC2CS(=O)(=O)CC3OC4OCCC4C23)cc1 (stereo partly shown)
- Ki [2]: < 1 nM

SMILES: COc1ccc(S(=O)(=O)N(CC(C)C)C[C@@H](O)[C@H](Cc2ccccc2)NC(=O)O[C@@H]2C[C@@H]3OC4OCCCC4[C@@H]3C2)cc1 (stereo partly shown)
- Ki [2]: < 0.1 nM

SMILES: CC(C)CN(C[C@@H](O)[C@H](Cc1ccccc1)NC(=O)O[C@@H]1C[C@@H]2[C@H]3COC[C@H]3O[C@@H]2C1)S(=O)(=O)c1ccc(N)cc1
- Ki [2]: < 0.1 nM

SMILES: COc1ccc(S(=O)(=O)N(CC(C)C)C[C@@H](O)[C@H](Cc2ccccc2)NC(=O)O[C@@H]2CO[C@@H]3O[C@H]4OCC[C@H]4[C@@H]32)cc1 [Inhibitor 34]
- fold changes of IC50 values compared to wild-type HIV-1ERS104pre [3]: 1 fold
- fold changes of IC50 values compared to wild-type HIV-1ERS104pre [4]: 2 fold
- fold changes of IC50 values compared to wild-type HIV-1ERS104pre [5]: 2 fold
- fold changes of IC50 values compared to wild-type HIV-1ERS104pre [6]: 2 fold
- fold changes of IC50 values compared to wild-type HIV-1ERS104pre [7]: 1 fold
- fold changes of IC50 values compared to wild-type HIV-1ERS104pre [8]: 2 fold
- fold changes of IC50 values compared to wild-type HIV-1ERS104pre [9]: >2 fold
- Ki [2]: < 10 nM
- IC50 [1]: < 1000 nM

SMILES: COc1ccc(S(=O)(=O)N(CC(C)C)C[C@@H](O)[C@H](Cc2ccccc2)NC(=O)O[C@H]2CO[C@H]3C[C@H]4OCC[C@H]4[C@H]32)cc1 [Inhibitor 35]
- Ki [2]: < 10 nM
- IC50 [1]: < 1000 nM

SMILES: COc1ccc(S(=O)(=O)N(CC(C)C)C[C@@H](O)[C@H](Cc2ccccc2)NC(=O)OC2CCCC3OC4OCCCC4C23)cc1 (stereo partly shown)
- Ki [2]: < 1 nM

SMILES: CC(C)CN(C[C@@H](O)[C@H](Cc1ccccc1)NC(=O)O[C@H]1CCOC1)S(=O)(=O)c1ccc(N)cc1 [APV, Amprenavir, reference compound]
- fold changes of IC50 values compared to wild-type HIV-1ERS104pre [3]: 1 fold
- fold changes of IC50 values compared to wild-type HIV-1ERS104pre [4]: 16 fold
- fold changes of IC50 values compared to wild-type HIV-1ERS104pre [5]: 15 fold
- fold changes of IC50 values compared to wild-type HIV-1ERS104pre [6]: 9 fold
- fold changes of IC50 values compared to wild-type HIV-1ERS104pre [7]: 11 fold
- fold changes of IC50 values compared to wild-type HIV-1ERS104pre [8]: 15 fold
- fold changes of IC50 values compared to wild-type HIV-1ERS104pre [9]: 13 fold

SMILES: COc1ccc(S(=O)(=O)N(CC(C)C)C[C@@H](O)[C@H](Cc2ccccc2)NC(=O)O[C@H]2CO[C@H]3C[C@@H]4OCC[C@@H]4[C@H]32)cc1 [Inhibitor 36]
- Ki [2]: < 10 nM
- IC50 [1]: > 1000 nM

SMILES: CC(C)CN(C[C@@H](O)[C@H](Cc1ccccc1)NC(=O)O[C@@H]1C[C@@H]2[C@H]3OCC[C@H]3O[C@@H]2C1)S(=O)(=O)c1ccc(N)cc1
- Ki [2]: > 10 nM

SMILES: COc1ccc(S(=O)(=O)N(CC(C)C)C[C@@H](O)[C@H](Cc2ccccc2)NC(=O)O[C@@H]2CO[C@@H]3O[C@@H]4OCC[C@@H]4[C@@H]32)cc1 [Inhibitor 32]
- IC50 [1]: < 10 nM

SMILES: CC(C)CN(C[C@@H](O)[C@H](Cc1ccccc1)NC(=O)O[C@H]1CO[C@H]2O[C@@H]3CCO[C@@H]3[C@H]21)S(=O)(=O)c1ccc(N)cc1
- Ki [2]: < 0.1 nM

SMILES: COc1ccc(S(=O)(=O)N(CC(C)C)C[C@@H](O)[C@H](Cc2ccccc2)NC(=O)O[C@H]2CO[C@H]3O[C@@H]4COC[C@@H]4[C@H]32)cc1
- Ki [2]: < 0.1 nM

SMILES: COc1ccc(S(=O)(=O)N(CC(C)C)C[C@@H](O)[C@H](Cc2ccccc2)NC(=O)O[C@H]2CO[C@H]3O[C@@H]4OCC[C@@H]4[C@H]32)cc1 [Inhibitor 33]
- fold changes of IC50 values compared to wild-type HIV-1ERS104pre [3]: 1 fold
- antiviral activity against a panel of highly PI-resistant clinical HIV-1 variants [10]: effectively suppressed all tested clinical HIV-1 variants
- fold changes of IC50 values compared to wild-type HIV-1ERS104pre [4]: 7 fold
- fold changes of IC50 values compared to wild-type HIV-1ERS104pre [5]: 5 fold
- fold changes of IC50 values compared to wild-type HIV-1ERS104pre [6]: 5 fold
- fold changes of IC50 values compared to wild-type HIV-1ERS104pre [7]: 2 fold
- fold changes of IC50 values compared to wild-type HIV-1ERS104pre [8]: 4 fold
- fold changes of IC50 values compared to wild-type HIV-1ERS104pre [9]: 5 fold
- Ki [2]: < 0.1 nM
- IC50 [1]: < 10 nM

SMILES: CC(C)CN(C[C@@H](O)[C@H](Cc1ccccc1)NC(=O)O[C@H]1CO[C@H]2OCC[C@H]21)S(=O)(=O)c1ccc(N)cc1 [DRV, Darunavir, reference compound]
- fold changes of IC50 values compared to wild-type HIV-1ERS104pre [3]: 1 fold
- fold changes of IC50 values compared to wild-type HIV-1ERS104pre [4]: 6 fold
- fold changes of IC50 values compared to wild-type HIV-1ERS104pre [5]: 6 fold
- fold changes of IC50 values compared to wild-type HIV-1ERS104pre [6]: 3 fold
- fold changes of IC50 values compared to wild-type HIV-1ERS104pre [7]: 2 fold
- fold changes of IC50 values compared to wild-type HIV-1ERS104pre [8]: 6 fold
- fold changes of IC50 values compared to wild-type HIV-1ERS104pre [9]: 5 fold

SMILES: COc1ccc(S(=O)(=O)N(CC(C)C)C[C@@H](O)[C@H](Cc2ccccc2)NC(=O)O[C@H]2CO[C@H]3O[C@@H]4CCO[C@@H]4[C@H]32)cc1
- Ki [2]: < 0.1 nM

SMILES: COc1ccc(S(=O)(=O)N(CC(C)C)C[C@@H](O)[C@H](Cc2ccccc2)NC(=O)O[C@H]2CCCC3O[C@H]4OCC[C@H]4C32)cc1 (stereo partly shown)
- Ki [2]: < 0.1 nM
- IC50 [1]: < 10 nM

SMILES: CC(C)CN(C[C@@H](O)[C@H](Cc1ccccc1)NC(=O)O[C@H]1CO[C@H]2O[C@@H]3COC[C@@H]3[C@H]21)S(=O)(=O)c1ccc(N)cc1
- Ki [2]: < 0.1 nM

SMILES: COc1ccc(S(=O)(=O)N(CC(C)C)C[C@@H](O)[C@H](Cc2ccccc2)NC(=O)OC2CS(=O)(=O)CC3OC4OCCCC4C23)cc1 (stereo partly shown)
- Ki [2]: > 10 nM

SMILES: CC(C)CN(C[C@@H](O)[C@H](Cc1ccccc1)NC(=O)O[C@H]1CO[C@H]2O[C@@H]3OCC[C@@H]3[C@H]21)S(=O)(=O)c1ccc(N)cc1
- Ki [2]: < 0.1 nM
